Reference: patent US4350699A, “Pyridylalkoxysulfinyl derivatives of carbamate esters” (priority 1981, dated 1982)

Columns and labels:
[1] = tested on: tobacco cutworms; test: test against tobacco cutworms (3rd instar larvae), cabbage leaf dip, mortality counted 72 hours after the treatment; type: in vivo; conditions: for mortality at 100 ppm / mortality at 500 ppm: foliar, leaf dip, 72 hours
Experimental: In the test against tobacco cutworms, aqueous solutions containing each toxicant at 100 and 500 ppm and an emulsifying agent, Shingramin, at 0.03% were prepared. The composition of Shingramin is understood to consist of 20% of polyoxyethylene dodecyl ether and polyoxyethylene alkylaryl ether, 12% ligninsulfonates and 68% inert solvents, by weight. A cabbage leaf was dipped into each of these solutions for 30 seconds, and put in a paper cup of 8 cm diameter. Ten tobacco cutworms (3rd instar larvae) were released onto the leaf. Two leaves were used for each dilution. Mortality of the insects was counted 72 hours after the treatment.

[2] = tested on: Mice; test: in vivo; conditions: compared with parent carbamate (methomyl or MIP)
Experimental: (§1) Representative compounds of the pyridylalkoxysulfinyl derivatives of carbamate esters of the invention were tested for insecticidal activity against house flies and tobacco cutworms, and for mammalian toxicity against mice.
(§2) Mammalian toxicity was determined against Swiss white mice. The test compound was applied orally using propylene glycol as the carrier.

[3] = in vivo; conditions: mouse, in vivo, po
Experimental: as §1, §2

[4] = tested on: House Flies; conditions: for toxicity against house flies (in words): judged from LD50 of Table I; for House Flies LD50: topical on the notum, 1 μl acetone solution, 24 hours
Experimental: as §1
In the test for houseflies, stock 1% concentrated solutions of each of the test compounds and the commercially related carbamate ester insecticide, methomyl, were made in acetone, and such solutions were diluted with acetone to a concentration of 0.001-0.1%. House flies were treated topically on the notum by 1 μl of each of the diluted acetone solutions and percent mortality was counted 24 hours after application.

SMILES	mortality at 100 ppm [1] [%]	mortality at 500 ppm [1] [%]	mammalian toxicity (in words) [2]	LD50 [3] [mg/kg]	toxicity against house flies (in words) [4]	House Flies LD50 [4] [µg/g]	potency for tobacco cutworms (in words) ([1]; compared with methomyl)
CSC(C)=NOC(=O)N(C)S(=O)OCc1cccnc1 (stereo not shown) [III, S-methyl N-[N'-methyl-N'-(3-pyridylmethoxy)sulfinylcarbamoyloxy]-thioacetimidate]	85	100	low	96	good toxicity	5.8	–
CNC(=O)Oc1cccc(C(C)C)c1 [MIP, reference compound]	–	–	much higher mammalian toxicity	–	–	–	–
CNC(=O)ON=C(C)SC [methomyl, reference compound]	100	100	much higher toxicity	–	–	3.7	–
CSC(C)=NOC(=O)N(C)S(=O)OCc1ccccn1 (stereo not shown) [I, S-methyl N-[N'-methyl-N'-(2-pyridylmethoxy)-sulfinylcarbamoyloxy] thioacetimidate]	5	65	low	85	good toxicity	7.0	not as potent as methomyl
CC(C)c1cccc(OC(=O)N(C)S(=O)OCc2ccccn2)c1 (stereo not shown) [IX, 3-Isopropylphenyl N-(2-pyridylmethoxysulfinyl)-N-methylcarbamate]	–	–	substantially lower mammalian toxicity	105	good toxicity	111.5	–
